Tests used:
Experiment in all cases: relative viability (nuclei count vs DMSO), 5 days (fraction); higher = more cells survive
[1] = compound: C(C(=O)C(=O)O)Br [Bromopyruvate] + CC(C)C[C@H](NC(=O)[C@H](Cc1ccccc1)NC(=O)c1cnccn1)B(O)O [Bortezomib] (partner 0.002 µM)
Procedure, shortened: (§1)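 After 5 days of treatment, lung cancer cells in 1536-well plates were fixed and stained in a single step (final 0.05% Triton X-100, 1% formaldehyde, 1 ug/ml Hoechst) and their nuclei counted on 4× images. Treatment had been applied by pin tool the day after seeding as one drug alone or as a fixed anchor-drug dose with five library-drug doses (not always all listed) in √10 steps. Relative viability is the nuclei count of treated wells divided by that of vehicle wells, and values are medians of duplicate plates.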

[2] = compound: C(C(=O)C(=O)O)Br [Bromopyruvate] + C[C@]1(O)C[C@@H](c2nc(-c3ccc4ccc(-c5ccccc5)nc4c3)c3c(N)nccn32)C1 [Linsitinib] (partner 1 µM)
Procedure, shortened: as §1

[3] = compound: CC(O)(CS(=O)(=O)c1ccc(F)cc1)C(=O)Nc1ccc(C#N)c(C(F)(F)F)c1 [Bicalutamide] + CC(=O)c1c(C)c2cnc(Nc3ccc(N4CCNCC4)cn3)nc2n(C2CCCC2)c1=O [Palbociclib] (partner 0.5 µM)
Procedure, shortened: as §1

[4] = compound: CC(O)(CS(=O)(=O)c1ccc(F)cc1)C(=O)Nc1ccc(C#N)c(C(F)(F)F)c1 [Bicalutamide] + Cc1nc(Nc2ncc(C(=O)Nc3c(C)cccc3Cl)s2)cc(N2CCN(CCO)CC2)n1 [Dasatinib] (partner 0.075 µM)
Procedure, shortened: as §1

Cell Line	relative viability ([1]; first compound 1 µM)	relative viability ([1]; first compound 3.162 µM)	relative viability ([1]; first compound 10 µM)	relative viability ([1]; first compound 31.62 µM)	relative viability ([1]; first compound 100 µM)	relative viability ([2]; first compound 1 µM)	relative viability ([2]; first compound 3.162 µM)	relative viability ([2]; first compound 10 µM)	relative viability ([2]; first compound 31.62 µM)	relative viability ([2]; first compound 100 µM)	relative viability ([3]; first compound 0.08 µM)	relative viability ([3]; first compound 0.253 µM)	relative viability ([3]; first compound 0.8 µM)	relative viability ([3]; first compound 2.53 µM)	relative viability ([4]; first compound 0.08 µM)	relative viability ([4]; first compound 0.253 µM)	relative viability ([4]; first compound 0.8 µM)	relative viability ([4]; first compound 2.53 µM)
BEN	0.897	0.724	0.78	0.836	0.682	0.97	0.869	0.932	0.929	0.936	0.442	0.438	0.526	0.496	0.355	0.316	0.393	0.38
CAL-12T	1.04	1.08	0.904	0.977	0.934	0.789	0.732	0.899	0.828	0.845	0.505	0.352	0.533	0.329	0.492	0.325	0.445	0.256
COR-L23	0.943	0.939	1.12	0.975	0.486	0.906	0.843	1	0.889	0.451	0.359	0.293	0.353	0.269	0.628	0.513	0.407	0.476
COR-L 105	0.559	0.876	0.526	0.769	0.566	0.943	0.898	0.838	0.736	0.702	0.405	0.407	0.379	0.379	0.325	0.257	0.325	0.285
EKVX	1.08	0.993	1.12	1.11	1.1	0.905	1.02	1.11	0.965	1.13	0.381	0.392	0.445	0.374	0.619	0.491	0.662	0.66
EMC-BAC-2	0.99	1.14	1.2	1.02	1.12	0.716	0.825	0.9	0.838	0.887	0.532	0.502	0.543	0.437	0.347	0.287	0.33	0.298
EPLC-272H	0.844	0.952	1.03	0.862	1.08	1.06	1.14	1.13	1.19	1.3	0.328	0.313	0.341	0.295	0.375	0.336	0.454	0.321
H3255	0.877	0.723	0.981	0.719	0.892	0.945	1.02	0.997	0.967	1.1	0.35	0.324	0.308	0.302	0.491	0.39	–	0.359
HARA	1.11	1.13	1.13	1.17	1.15	0.978	1.01	1.01	0.932	1.02	0.246	0.262	0.329	0.242	0.273	0.248	0.314	0.265
HCC-15	0.98	1.03	1.03	0.99	0.973	0.84	0.867	0.924	0.824	0.899	0.727	0.501	0.79	0.767	0.666	0.568	0.653	0.609
HCC-78	0.282	0.615	0.569	0.563	0.495	0.457	0.603	0.575	0.629	0.547	0.464	0.513	0.499	0.476	0.363	0.297	0.483	0.375
HCC-366	1.04	1.06	1.38	1.09	1.18	0.615	0.848	0.765	0.769	0.54	0.368	0.383	0.583	0.359	0.556	0.481	0.749	0.5
HCC-827	1.05	1.07	1.03	1.08	1.05	1.01	0.932	0.926	0.962	0.981	0.499	0.389	0.496	0.476	0.328	0.19	0.315	0.293
HOP-62	0.739	0.832	–	0.547	0.628	1.04	1.02	–	0.368	0.24	0.47	0.464	0.566	0.502	0.663	0.646	0.815	0.516
LC-2-ad	0.924	0.934	1.07	0.977	0.988	0.825	0.93	0.869	0.842	0.909	0.475	0.473	0.464	0.516	0.693	0.514	0.701	0.514
LCLC-97TM1	0.957	0.625	0.735	0.573	0.586	–	–	0.22	0.198	0.162	0.227	0.216	0.3	0.225	0.954	0.853	0.813	0.817
LCLC-103H	1.05	0.998	1.06	1.08	1.16	1.28	1.07	1	1.08	1.14	0.467	0.478	0.53	0.51	0.401	0.428	0.52	0.425
LOU-NH91	0.499	0.499	0.518	0.49	0.472	0.89	0.964	0.944	1.04	1.1	0.449	0.548	0.553	0.541	0.635	0.43	0.605	0.568

Cell Line	relative viability ([1]; first compound 1 µM)	relative viability ([1]; first compound 3.162 µM)	relative viability ([1]; first compound 10 µM)	relative viability ([1]; first compound 31.62 µM)	relative viability ([1]; first compound 100 µM)	relative viability ([2]; first compound 1 µM)	relative viability ([2]; first compound 3.162 µM)	relative viability ([2]; first compound 10 µM)	relative viability ([2]; first compound 31.62 µM)	relative viability ([2]; first compound 100 µM)	relative viability ([3]; first compound 0.08 µM)	relative viability ([3]; first compound 0.253 µM)	relative viability ([3]; first compound 0.8 µM)	relative viability ([3]; first compound 2.53 µM)	relative viability ([4]; first compound 0.08 µM)	relative viability ([4]; first compound 0.253 µM)	relative viability ([4]; first compound 0.8 µM)	relative viability ([4]; first compound 2.53 µM)
LU99A	1.18	1.11	1.05	1.05	1.26	0.567	0.563	0.552	0.614	0.511	0.386	0.36	0.531	0.393	0.569	0.536	0.738	0.444
LXF-289	1.04	0.966	0.975	1.03	1	0.966	0.969	0.981	0.951	1.01	0.596	0.543	0.614	0.592	0.214	0.25	0.227	0.194
NCI-H23	1.03	0.991	1.25	0.941	0.839	0.484	0.584	0.661	0.54	0.51	0.529	0.503	0.515	0.471	0.789	0.67	1.07	0.802
NCI-H322M	1.2	1.25	1.12	1.18	1.26	0.869	0.913	0.981	0.908	0.891	0.515	0.482	0.464	0.524	0.236	0.248	0.264	0.319
NCI-H441	0.37	0.549	0.481	0.548	0.459	0.533	0.656	0.543	0.507	0.518	0.33	0.142	0.24	0.202	0.646	0.63	0.664	0.534
NCI-H460	1.06	1.14	1.34	0.978	1.07	0.801	0.832	1.09	0.717	0.744	0.171	0.185	0.193	0.102	0.498	0.44	0.646	0.483
NCI-H520	0.6	0.595	0.532	0.49	0.541	1.06	1.09	1.11	0.961	0.893	0.188	0.185	0.286	0.226	0.192	0.195	0.185	0.137
NCI-H647	0.93	1.01	1	1.18	0.961	1.03	1.48	1.55	1.15	0.806	0.415	0.381	0.503	0.385	0.187	0.173	0.208	0.139
NCI-H650	0.946	0.819	0.856	0.897	0.973	0.756	0.976	0.871	0.921	1.03	0.372	0.345	0.397	0.267	0.483	0.42	0.456	0.356
NCI-H661	0.862	0.755	0.84	0.854	0.98	0.556	0.631	0.591	0.727	0.676	0.418	0.409	0.424	0.388	0.95	0.844	1.03	0.722
NCI-H727	1.01	0.984	0.939	0.729	1.01	0.307	0.495	0.296	0.291	0.283	0.647	0.645	0.693	0.635	0.376	–	0.383	0.653
NCI-H838	0.915	0.886	0.773	0.786	0.763	0.966	1.05	1.23	1.02	1.1	0.225	0.195	0.256	0.179	0.319	0.303	0.392	0.272
NCI-H1355	1.35	1.16	1.25	1.34	1.16	0.778	0.772	0.914	0.873	0.866	0.4	0.382	0.437	0.374	0.753	0.639	0.797	0.729
NCI-H1437	0.546	0.458	0.485	0.405	0.626	1.02	1.03	1.22	1.02	1.17	0.305	0.283	0.342	0.343	0.412	0.406	0.466	0.447
NCI-H1651	0.922	0.952	1.04	0.822	0.867	0.876	0.98	0.902	0.885	1.07	0.526	0.515	0.582	0.518	0.449	0.322	0.471	0.451
NCI-H1666	0.804	0.847	0.638	0.89	0.819	0.736	0.764	0.783	0.744	0.86	0.652	0.603	0.652	0.675	0.915	0.789	0.767	0.731
NCI-H1734	0.984	0.89	1.11	0.97	1.09	0.837	0.949	0.989	0.852	0.905	0.332	0.283	0.379	0.328	0.454	0.4	0.561	0.367
NCI-H1755	0.967	0.938	0.994	1.01	1.03	1.01	1.03	0.984	0.984	0.985	0.472	0.42	0.473	0.43	0.397	0.382	0.446	0.351

— the supplement of paper PMC10307832
